Reference: PMC4078515 (Pharmaceuticals, 2014)
Values joined by “and” are separate entries in the source; they are usually repeats but may differ in a detail not shown here. Equal values may be shown once. Read-outs that look alike come from different tables or passages of the source.

Tests used:
in vivo [1] = conditions: guinea pig; for Cmax / Tmax / AUC(0-t) / half-life: male, Hartley albino
Procedure: (§1) The column used for chromatographic separation was a Waters Xbridge C18, 2.1 × 50 mm 2.5 µm at 30 °C. Mobile phase A: 10:40:50, 1.0% ammonium hydroxide solution in water, adjusted to pH 10.5 with formic acid: water: ACN. Mobile phase B: 10:90, 1.0% ammonium hydroxide solution in water, adjusted to pH 10.5 with formic acid: ACN. Flow rate: 250 µL/min, injection volume: 10 µL, run time: 10 min. Gradient, 100% A hold for 1 min, 0% B to 100% B over 4 min, hold 100% B for 4.5 min, 0% B at 9.51 min and equilibrate for 0.5 min.
(§2) The LTQ-XL ion trap mass spectrometer was coupled to the Accela LC system via an electrospray ionization (ESI) probe. The capillary temperature was maintained at 350 °C, sheath gas flow rate 50 arbitrary units, auxiliary gas flow rate 5 arbitrary units, sweep gas flow rate 0 arbitrary units, source voltage 3.20 kV, source current 100 µA, capillary voltage 43.00 V and tube lens 100 V. Compounds were detected in positive ion mode using selected ion monitoring (SIM). Hydroxybupropion was detected at (M+H)^+ = 256.1099, RT = 1.0 min, Rac-erythro-hydrobupropion (M+H)^+ = 242.1306, RT = 2.3 min, Rac-threo-hydrobupropion (M+H)^+ = 242.1306, RT 2.8 min, bupropion (M+H)^+ = 240.1150, RT = 2.0 min, N-methylbupropion (M+H)^+ = 254.1306, RT = 4.9 min, Rac-N-methyl-erythro-hydrobupropion (M+H)^+ = 256.1463, RT = 4.1 min and Rac-N-methyl-threo-hydrobupropion (M+H)^+ = 256.1463, RT = 4.6 min. The optimum detector conditions were found by tuning the instrument to be most sensitive for bupropion’s most abundant ion at 240 (m/z).
After acclimatization, male Hartley albino guinea-pigs, weighing 280–320 g were deprived of food for 16 h with free access to water (food withdrawal at 04:00 PM the day before). On the day of the experiment five guinea pigs per group were weighed then injected through the abdominal wall or fed by oral gavage with bupropion given at 40 mg/kg intraperitoneum. A second group of five guinea pigs were weighed then injected through the abdominal wall or fed by oral gavage with N-methyl bupropion given at 42 mg/Kg intraperitoneum.
Guinea pigs were placed under isoflurane anesthesia and approximately 100 µL of blood was collected using hematocrit capillaries or by cardiac puncture (terminal) into dry heparin/Li containing tubes before administration and then at five time points post-administration (0, 20, 40, 60, 120 and 180 min) for intraperitoneal study and seven time-points post administration (0, 20, 40, 60, 120, 180, 240 and 360 min) for oral study. After blood was collected, the tubes were inverted several times and placed on ice. The samples were centrifuged within 30 min maximum after sampling at 2205 g at 4 °C for 10 min. Plasma was transferred to polypropylene tubes and frozen with minimal delay at approximately −70 °C.
(§3) Guinea pig plasma was defrosted and centrifuged. Then, plasma (50 µL) was added to a 1.5 mL microcentrifuge tube. ACN (200 µL) was added and the mixture was vortex mixed. The resulting solution was centrifuged at 8000 g for 10 min. Supernatant (100 µL) was added to HCl (100 µL, 0.001 M). The solution was vortex mixed and added to a 100 µL micro-insert for LC-MS analysis.
Pharmacokinetic calculations were determined on Graphpad Prism software. Michaelis-Menten parameters were determined by non-linear regression analysis. The pharmacokinetic data was interpreted using a one-compartment model where the amount of drug present in the body at any given time t [A(t)] is described in Equation (1).
Drug concentration: A(t) = Cp(t)V(1) where Cp(t) and V are the drug concentration in the plasma and the apparent volume of distribution respectively. At least five sample time points were collected including at least one time point before tmax and three time points during the terminal phase for half-life estimation.

in vivo [2] = conditions: Hartley, guinea pig, ip
Procedure: as §1, §2
An additional group of guinea-pigs were used for brain collection at a single time point (20 min). The day of the experiment four guinea pigs per group were weighed then injected through the abdominal wall with bupropion given at 40 mg/kg IP and N-methylbupropion given at 42 mg/Kg IP. At time 20 min post-injection, the animals were decapitated and the brain extracted and rinsed in cold physiological saline. The whole brain was fast frozen on dry ice and placed into pre-labeled vials and stored at approximately −70 °C (deep frozen).>
as §3
Guinea pig brain was defrosted. The whole brain was weighed into a beaker and 0.01 M HCl (20 mL) was added. The mixture was homogenized for 3 min on level 6 and allowed to settle for 10 min. An aliquot of the resulting suspension was centrifuged at 10,000 g for 10 min. Supernatant (250 µL) was added to ACN 750 µL. The mixture was centrifuged at 10,000 g for 10 min. 200 µL of the supernatant was added to 800 µL water. The clear solution was vortex mixed and analyzed by LC-MS.

in vivo [3] = assay type: in vivo; conditions: guinea pig; for concentration at 20 min / Kp at 20 min: Hartley, in vivo
Procedure: Guinea pig plasma was defrosted and centrifuged.
Guinea pig brain was defrosted. […] Supernatant (250 µL) was added to ACN 750 µL.
Brain levels were determined on a separate group.

[4] = pH dependence, cited from earlier work
[5] = N-demethylation of N-methylbupropion to bupropion, substrate saturation study; assay type: in vitro ADME; conditions: 0.1 mg/mL guinea pig S9 liver fraction, 50–1000 μM, 20 min, 37 °C, n = 3
Procedure: Guinea pig S9 liver fraction, NADPH regenerating solutions A and B were thawed rapidly to 37 °C, then kept on wet ice until ready for use. A number of different concentration substrate solutions were prepared were the maximum concentration of DMSO was 1%, and the concentration of guinea pig S9 liver fraction, NADP regenerating system solution B and phosphate buffer was fixed. After incubation for 5 min, NADP regenerating system solution A was added and the metabolism was initiated. Final volume was 100 μL. The tube was inverted twice and vortex mixed. The final concentrations in this solution was 50–1000 μM prodrug, 0.1 mg/mL guinea-pig S9 liver fraction, 1.3 mM NADP^+, 0.4 U/mL glucose-6-phosphate dehydrogenase and 1.0% DMSO. This solution was incubated for 20 min at 37 °C. The reaction was quenched by addition of 100 μL of ACN. […] The supernatant was analysed by LC-MS analysis.
Pharmacokinetic calculations were determined on Graphpad Prism software.
In selecting a guinea pig animal model for an in vivo study, it was prudent to first verify if an in vitro guinea pig model would carry out the same metabolic transformations. […] N-methylbupropion and bupropion concentrations were determined by LC-MS. […] Other unknown minor metabolites of N-methylbupropion were also detected but were not quantified at this stage. These were determined during the in vivo stage, discussed below.

[6] = tested on: dopamine active transport (DAT); parameters: method as in preceding paper (paper 1 of this series); conditions: in vitro; ref preceding paper (paper 1 of this series); cited from earlier work
[7] = tested on: norepinephrine transport (NET); parameters: method as in preceding paper (paper 1 of this series); conditions: in vitro; ref preceding paper (paper 1 of this series); cited from earlier work
[8] = ip, 42 mg/kg, Mean Cmax ± SD, plasma analyte after N-Methylbupropion dosed at 42 mg/Kg IP, n = 5
[9] = ip, 42 mg/kg, tmax, plasma analyte after N-Methylbupropion dosed at 42 mg/Kg IP, n = 5
[10] = 20 min post dose of 42 mg/Kg N-methyl bupropion via oral gavage, read-out: Brain levels
[11] = 20 min post dose of 42 mg/Kg N-methyl bupropion via oral gavage, read-out: Brain/plasma ratio
[12] = 20 min post dose of 42 mg/Kg N-methyl bupropion via oral gavage, read-out: Plasma levels
[13] = ip, 40 mg/kg, Cmax, plasma analyte after dosing bupropion 40 mg/Kg IP
[14] = ip, 40 mg/kg, tmax, plasma analyte after dosing bupropion 40 mg/Kg IP
[15] = 20 min post dose of 40 mg/Kg bupropion via oral gavage, read-out: Brain levels
[16] = 20 min post dose of 40 mg/Kg bupropion via oral gavage, read-out: Brain/plasma ratio
[17] = 20 min post dose of 40 mg/Kg bupropion via oral gavage, read-out: Plasma levels

Structure (SMILES)	Cmax (in vivo [1]; [8]) [ng/mL]	Tmax (in vivo [1]; [9]) [min]	Kp at 20 min (in vivo [2]; 42 mg/kg)	concentration at 20 min (in vivo [3]; [10]) [ng/g]	Kp at 20 min (in vivo [3]; [11])	concentration at 20 min (in vivo [3]; [12]) [ng/mL]	AUC(0-t) (in vivo [1]; ip, 40 mg/kg) [ng·h/mL]	half-life (in vivo [1]; ip, 40 mg/kg) [min]	Cmax (in vivo [1]; ip, 40 mg/kg, Mean Cmax ± SD) [ng/mL]	Kp at 20 min (in vivo [2]; 40 mg/kg)	Cmax (in vivo [1]; [13]) [ng/mL]	Tmax (in vivo [1]; [14]) [min]	concentration at 20 min (in vivo [3]; [15]) [ng/g]	Kp at 20 min (in vivo [3]; [16])	concentration at 20 min (in vivo [3]; [17]) [ng/mL]	also measured
C[C@H]([C@H](O)c1cccc(Cl)c1)N(C)C(C)(C)C (racemic) [N-Me THB, Rac-N-methyl-threo-hydrobupropion]	80 ± 20	19.8	12.6	570	14.2	40										
C[C@H]1NC(C)(C)CO[C@]1(O)c1cccc(Cl)c1 (relative stereo) [BupOH, hydroxybupropion]	720 ± 140	60	7.61				2330	408	950 ± 170	6.3						Tmax (in vivo [1]; in vivo): 60 min; Tmax (in vivo [1]; ip, 40 mg/kg): 39.6 min; Kp at 20 min (in vivo [3]; po, 40 mg/kg): 0.5; concentration at 20 min (in vivo [3]; po, 40 mg/kg): 370 ng/g and 730 ng/mL; Kp at 20 min (in vivo [3]; po, 42 mg/kg): 0.4; concentration at 20 min (in vivo [3]; po, 42 mg/kg): 220 ng/g and 550 ng/mL
CC(NC(C)(C)C)C(=O)c1cccc(Cl)c1 (stereo not drawn) [Bup, Bupropion]	380 ± 90	19.8	17.1	460	9.2	50				11.2	869 ± 190	20	430	4.78	90	Cmax (in vivo [1]; ip, 40 mg/kg, Mean Cmax ± SD, plasma analyte after Bupropion dosed at 40 mg/Kg IP, n = 5): 870 ± 190 ng/mL; Tmax (in vivo [1]; ip, 40 mg/kg, tmax, plasma analyte after Bupropion dosed at 40 mg/Kg IP, n = 5): 19.8 min; stability of freebase ([4]; aqueous): suffers from hydrolysis and oxidation at pH > 5; sample stability in plasma ([4]; plasma samples, ref 14,15 (supplement)): stable at low pH
CC(C(=O)c1cccc(Cl)c1)N(C)C(C)(C)C (stereo not drawn) [N-Me Bup, N-methylbupropion]	180 ± 80	19.8	20.2			20										t½ (in vivo [1]; plasma analyte after N-Methylbupropion dosed at 42 mg/Kg via oral gavage, n = 5): <LOQ; Vmax [5]: 419.2 ± 13.65 pmol/min/mg S9; activity at DAT compared to bupropion [6]: lower activity; Brain/plasma ratio (in vivo [3]; 20 min post dose of 42 mg/Kg N-methyl bupropion via oral gavage): <LOQ; Brain levels (in vivo [3]; 20 min post dose of 42 mg/Kg N-methyl bupropion via oral gavage, listed as N-MeBup, 42 mg/kg): <LOQ; Brain levels (in vivo [3]; 20 min post dose of 42 mg/Kg N-methyl bupropion via oral gavage, listed as N-methylbupropion, 42 mg/kg): below the limit of quantitation; activity at NET compared to bupropion [7]: lower activity
C[C@@H](NC(C)(C)C)[C@H](O)c1cccc(Cl)c1 [THB, threo-hydrobupropion]	970 ± 280	60	12.1	620	1.15	540	2860	198	1220 ± 310	6.54	1230 ± 307	20	970	1.17	830	Tmax (in vivo [1]; in vivo, 42 mg/Kg): 60 min; Tmax (in vivo [1]; ip, 40 mg/kg, tmax): 19.8 min
